Here are results for 26 molecules from US9938281B2 (Merck Sharp & Dohme Corp., priority 2012, dated 2018).

The target in one test is T1, PI3K-alpha (Homo sapiens, UniProt P42336).
T1 construct: purchased Upstate; Millipore 14-602
The test can be described thus: HTRF PI3K biochemical assay, alpha isoform. The conditions noted are these: ratio PI3K-alpha IC50 value / PI3K-delta IC50 value.

For a further test, the target named is T2, PI3K-delta (Homo sapiens, UniProt O00329).
T2 construct: purchased Upstate; Millipore 14-604
Briefly: HTRF PI3K biochemical assay, delta isoform. The conditions noted are these: form screened (neutral or TFA salt) given, read-out: PI3Kdelta IC50.

Each structure is given as a SMILES string.

T1 sequence (P42336 whole entry): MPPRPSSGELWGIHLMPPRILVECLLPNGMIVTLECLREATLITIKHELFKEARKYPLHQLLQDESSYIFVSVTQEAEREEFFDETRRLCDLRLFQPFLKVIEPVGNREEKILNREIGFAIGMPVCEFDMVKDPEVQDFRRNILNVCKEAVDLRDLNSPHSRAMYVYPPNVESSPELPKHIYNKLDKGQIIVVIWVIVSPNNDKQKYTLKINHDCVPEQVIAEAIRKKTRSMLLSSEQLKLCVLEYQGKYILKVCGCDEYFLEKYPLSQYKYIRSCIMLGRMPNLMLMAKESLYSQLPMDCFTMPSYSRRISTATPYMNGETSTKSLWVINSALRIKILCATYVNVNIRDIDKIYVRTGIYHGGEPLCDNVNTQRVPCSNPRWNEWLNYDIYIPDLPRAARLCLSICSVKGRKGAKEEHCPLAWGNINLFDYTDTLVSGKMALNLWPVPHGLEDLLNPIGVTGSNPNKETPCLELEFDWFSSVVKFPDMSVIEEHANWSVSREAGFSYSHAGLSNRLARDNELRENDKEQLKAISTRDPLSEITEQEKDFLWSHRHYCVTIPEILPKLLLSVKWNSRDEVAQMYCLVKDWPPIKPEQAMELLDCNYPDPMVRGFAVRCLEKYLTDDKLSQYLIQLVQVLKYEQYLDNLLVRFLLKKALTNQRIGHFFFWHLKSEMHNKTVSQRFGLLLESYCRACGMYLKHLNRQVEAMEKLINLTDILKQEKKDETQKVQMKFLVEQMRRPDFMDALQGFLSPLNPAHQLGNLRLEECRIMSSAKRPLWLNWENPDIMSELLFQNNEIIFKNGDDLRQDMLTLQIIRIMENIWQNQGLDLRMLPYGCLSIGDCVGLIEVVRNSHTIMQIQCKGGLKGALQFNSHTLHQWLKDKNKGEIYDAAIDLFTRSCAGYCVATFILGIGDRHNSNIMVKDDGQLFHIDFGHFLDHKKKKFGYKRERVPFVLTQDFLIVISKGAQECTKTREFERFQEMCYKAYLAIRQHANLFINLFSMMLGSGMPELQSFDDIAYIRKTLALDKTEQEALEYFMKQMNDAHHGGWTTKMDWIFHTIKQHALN
T1 sequence (P27986 whole entry partner): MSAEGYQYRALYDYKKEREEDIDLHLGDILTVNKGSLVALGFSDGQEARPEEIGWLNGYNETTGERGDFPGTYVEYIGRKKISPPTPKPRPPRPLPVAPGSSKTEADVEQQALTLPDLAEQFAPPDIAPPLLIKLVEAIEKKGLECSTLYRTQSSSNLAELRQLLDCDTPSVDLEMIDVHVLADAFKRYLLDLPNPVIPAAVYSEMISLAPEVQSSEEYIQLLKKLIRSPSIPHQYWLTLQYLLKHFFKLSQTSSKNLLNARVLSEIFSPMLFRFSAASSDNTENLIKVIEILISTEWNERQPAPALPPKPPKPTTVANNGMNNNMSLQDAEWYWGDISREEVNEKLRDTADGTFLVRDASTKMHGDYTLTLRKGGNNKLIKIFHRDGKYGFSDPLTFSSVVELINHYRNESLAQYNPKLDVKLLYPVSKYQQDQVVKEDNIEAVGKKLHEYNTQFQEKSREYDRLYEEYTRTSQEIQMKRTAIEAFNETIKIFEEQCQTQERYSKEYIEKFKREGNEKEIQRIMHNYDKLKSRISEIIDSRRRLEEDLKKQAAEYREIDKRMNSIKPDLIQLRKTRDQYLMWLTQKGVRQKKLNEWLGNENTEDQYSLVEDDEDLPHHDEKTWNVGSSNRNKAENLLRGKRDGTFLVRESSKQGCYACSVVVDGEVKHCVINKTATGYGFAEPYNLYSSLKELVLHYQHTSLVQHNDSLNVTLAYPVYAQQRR
T2 sequence (O00329 whole entry): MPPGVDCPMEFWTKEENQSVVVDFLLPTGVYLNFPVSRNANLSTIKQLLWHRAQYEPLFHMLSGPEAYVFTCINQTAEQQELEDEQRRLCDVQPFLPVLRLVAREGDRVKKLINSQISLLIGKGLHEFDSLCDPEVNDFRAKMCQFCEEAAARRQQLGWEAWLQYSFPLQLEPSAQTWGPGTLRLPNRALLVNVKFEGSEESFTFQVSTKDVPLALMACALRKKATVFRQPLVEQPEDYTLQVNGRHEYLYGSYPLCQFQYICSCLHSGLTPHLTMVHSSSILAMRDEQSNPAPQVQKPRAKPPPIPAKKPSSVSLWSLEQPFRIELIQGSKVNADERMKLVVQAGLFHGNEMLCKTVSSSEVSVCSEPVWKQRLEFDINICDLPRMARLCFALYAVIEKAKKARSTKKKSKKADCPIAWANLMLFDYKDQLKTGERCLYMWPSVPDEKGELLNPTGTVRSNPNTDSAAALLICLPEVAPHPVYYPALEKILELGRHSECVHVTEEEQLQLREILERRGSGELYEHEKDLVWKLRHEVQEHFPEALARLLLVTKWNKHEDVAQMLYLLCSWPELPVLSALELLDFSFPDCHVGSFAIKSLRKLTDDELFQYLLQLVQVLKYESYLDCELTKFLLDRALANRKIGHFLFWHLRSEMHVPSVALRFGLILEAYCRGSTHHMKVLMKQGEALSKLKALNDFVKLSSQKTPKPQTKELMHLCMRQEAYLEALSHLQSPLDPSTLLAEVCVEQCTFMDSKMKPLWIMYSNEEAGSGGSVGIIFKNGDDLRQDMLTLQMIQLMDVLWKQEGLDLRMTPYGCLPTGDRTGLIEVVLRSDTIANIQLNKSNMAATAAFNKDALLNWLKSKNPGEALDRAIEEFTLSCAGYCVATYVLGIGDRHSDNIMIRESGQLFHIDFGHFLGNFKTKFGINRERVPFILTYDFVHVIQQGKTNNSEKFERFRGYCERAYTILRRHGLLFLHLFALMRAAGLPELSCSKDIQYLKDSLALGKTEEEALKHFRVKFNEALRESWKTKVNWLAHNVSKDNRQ
T2 sequence (P27986 whole entry partner): as the sequence (P27986 whole entry partner) above

`CCn1c(-c2cnc(C)nc2)nc2c(NC3CCCC(=O)N(CC4CC4)C3)ncnc21` (single isomer, unassigned) [Compound 14-7, (R or S)-1-(cyclopropylmethyl)-6-{[9-ethyl-8-(2-methylpyrimidin-5-yl)-9H-purin-6-yl]amino}azepan-2-one]: the “Selectivity versus PI3Kalpha” value at PI3K-alpha was greater than 10. At PI3K-delta, the IC50 was 13 nM.
As for `CCn1c(CC2CC2)nc2c(N[C@H]3CCN(C(=O)C4CC4)C3)ncnc21` [Compound 7-1, N-[(3S)-1-(cyclopropylcarbonyl)pyrrolidin-3-yl]-8-(cyclopropylmethyl)-9-ethyl-9H-purin-6-amine], the “Selectivity versus PI3Kalpha” value at PI3K-alpha is greater than 10. Besides, the IC50 on PI3K-delta came to 47 nM.
Turning to `CCCn1c(-c2cnc(C)nc2)nc2c(N[C@H]3CCN(C(=O)CC)C3)ncnc21` [Compound 9-2, 8-(2-methylpyrimidin-5-yl)-N-[(3S)-1-propanoylpyrrolidin-3-yl]-9-propyl-9H-purin-6-amine], at PI3K-alpha, the “Selectivity versus PI3Kalpha” value is listed as greater than 10. The IC50 at PI3K-delta was determined as 36 nM.
Take `CCn1c(-c2ccc(C(F)(F)F)nc2)nc2c(N[C@H]3CCN(C(=O)[C@H]4C[C@@H](OC)C4)C3)ncnc21` [Compound 2-105, 9-ethyl-N-{(3S)-1-[(cis-3-methoxycyclobutyl)carbonyl]pyrrolidin-3-yl}-8-[6-(trifluoromethyl)pyridin-3-yl]-9H-purin-6-amine]: the “Selectivity versus PI3Kalpha” value at PI3K-alpha is recorded as greater than 10. Further, the IC50 on PI3K-delta is less than 1 nM.
For the molecule `CCn1ncc(-c2nc3c(N[C@H]4CCN(C(=O)c5nc(C)oc5C)C4)ncnc3n2C)c1C` [Compound 2-5, N-{(3S)-1-[(2,5-dimethyl-1,3-oxazol-4-yl)carbonyl]pyrrolidin-3-yl}-8-(1-ethyl-5-methyl-1H-pyrazol-4-yl)-9-methyl-9H-purin-6-amine], at PI3K-alpha, the “Selectivity versus PI3Kalpha” value is greater than 10. Further, the IC50 at PI3K-delta was found to be 1.5 nM.
For `CCn1c(-c2cnc(C)nc2)nc2c(N[C@H]3CCN(C(=O)c4nc(C)oc4C)C3)ncnc21` [Compound 2-19, (S)-(2,5-dimethyloxazol-4-yl)(3-((9-ethyl-8-(2-methylpyrimidin-5-yl)-9H-purin-6-yl)amino)pyrrolidin-1-yl)methanone], the “Selectivity versus PI3Kalpha” value at PI3K-alpha is given as greater than 10. Moreover, the IC50 on PI3K-delta was found to be 2.1 nM.
On to `CCn1c(C(F)F)nc2c(N[C@H]3CCN(C(=O)c4cocn4)C3)ncnc21` [Compound 7-16, 8-(difluoromethyl)-9-ethyl-N-[(3S)-1-(1,3-oxazol-4-ylcarbonyl)pyrrolidin-3-yl]-9H-purin-6-amine], for which the “Selectivity versus PI3Kalpha” value at PI3K-alpha is recorded as greater than 10. Besides, at PI3K-delta, the IC50 came to 120 nM.
Turning to `CCn1c(-c2cnc(C)nc2)nc2c(NC3CN(C(=O)C4CC4)CC3C)ncnc21` (racemic) [Compound 3-16, N-[(3R,4R and 3S,4S)-1-(cyclopropylcarbonyl)-4-methylpyrrolidin-3-yl]-9-ethyl-8-(2-methylpyrimidin-5-yl)-9H-purin-6-amine], the “Selectivity versus PI3Kalpha” value at PI3K-alpha is reported as greater than 10. Besides, the IC50 on PI3K-delta came to 3.4 nM.
For the molecule `CCC(=O)N1CC[C@H](N(C)c2ncnc3c2nc(-c2cnc(OC)c(C)c2)n3C)C1` [Compound 2-13, (S)-1-(3-((8-(6-methoxy-5-methylpyridin-3-yl)-9-methyl-9H-purin-6-yl)(methyl)amino)pyrrolidin-1-yl)propan-1-one], the “Selectivity versus PI3Kalpha” value at PI3K-alpha is greater than 10. At PI3K-delta, the IC50 worked out at 17 nM.
For the molecule `CCn1c(C(=O)N[C@H]2CC[C@H](O)CC2)nc2c(N[C@H]3CCN(C(=O)C4CC4)C3)ncnc21` [Compound 6-7, 6-{[(3S)-1-(cyclopropylcarbonyl)pyrrolidin-3-yl]amino}-9-ethyl-N-(trans-4-hydroxycyclohexyl)-9H-purine-8-carboxamide], the “Selectivity versus PI3Kalpha” value at PI3K-alpha was greater than 10. Further, on PI3K-delta, the IC50 was found to be 19 nM.
For `CCn1c(C(=O)NCCC(F)(F)F)nc2c(N[C@H]3CCN(C(=O)C4CC4)C3)ncnc21` [Compound 6-17, 6-{[(3S)-1-(cyclopropylcarbonyl)pyrrolidin-3-yl]amino}-9-ethyl-N-(3,3,3-trifluoropropyl)-9H-purine-8-carboxamide], the “Selectivity versus PI3Kalpha” value on PI3K-alpha was greater than 10. Moreover, the IC50 on PI3K-delta was determined as 14 nM.
Regarding `CCn1c(-c2cnc(C)nc2)nc2c(N[C@H]3CCN(C(=O)[C@H]4C[C@H](OC)C4)C3)ncnc21` [Compound 2-38, 9-ethyl-N-{(3S)-1-[(trans-3-methoxycyclobutyl)carbonyl]pyrrolidin-3-yl}-8-(2-methylpyrimidin-5-yl)-9H-purin-6-amine], the “Selectivity versus PI3Kalpha” value at PI3K-alpha is listed as greater than 10. For the same molecule, the IC50 on PI3K-delta was determined as 1.7 nM.
On the same counts, the results for `CCn1c(-c2cnc(C)nc2)nc2c(N[C@H]3CCN(C(=O)c4cnn(C)c4)C3)ncnc21` [Compound 2-73, 9-ethyl-N-{(3S)-1-[(1-methyl-1H-pyrazol-4-yl)carbonyl]pyrrolidin-3-yl}-8-(2-methylpyrimidin-5-yl)-9H-purin-6-amine] are greater than 10 and 4.2 nM.
On to `CCn1c(-c2cnc(C)nc2)nc2c(N[C@H]3CCN(C(=O)CN(C)C)C3)ncnc21` [Compound 2-31, N-{(3S)-1-[(dimethylamino)acetyl]pyrroli-din-3-yl}-9-ethyl-8-(2-methylpyrimidin-5-yl)-9H-purin-6-amine], for which the “Selectivity versus PI3Kalpha” value on PI3K-alpha is given as greater than 10. For the same molecule, at PI3K-delta, the IC50 was found to be 10 nM.
On the same counts, the results for `CCn1c(C(F)F)nc2c(N[C@H]3CCN(C(=O)[C@H]4C[C@H](OC)C4)C3)ncnc21` [Compound 7-17, 8-(difluoromethyl)-9-ethyl-N-{(3S)-1-[(trans-3-methoxycyclobutyl)carbonyl]pyrrolidin-3-yl}-9H-purin-6-amine] are greater than 10 and 74 nM.
On to `CCn1c(-c2cnc(C)nc2)nc2c(NC3CN(C(=O)C4CC4)CC3O)ncnc21` (single isomer, unassigned) [Compound 2-97, 1-(cyclopropylcarbonyl)-4-{(3R,4R) or (3S,4S)-[9-ethyl-8-(2-methylpyrimidin-5-yl)-9H-purin-6-yl]amino}pyrrolidin-3-ol], for which the “Selectivity versus PI3Kalpha” value on PI3K-alpha is reported as greater than 10. Moreover, the IC50 on PI3K-delta worked out at 2.9 nM.
Regarding `CCn1c(-c2cnc(C)nc2)nc2c(N[C@H]3CCN(C(=O)C4C(C)(C)C4(C)C)C3)ncnc21` [Compound 2-60, 9-ethyl-8-(2-methylpyrimidin-5-yl)-N-{(3S)-1-[(2,2,3,3-tetramethylcyclopropyl)carbon-yl]pyrrolidin-3-yl}-9H-purin-6-amine], at PI3K-alpha, the “Selectivity versus PI3Kalpha” value is on record as greater than 10. On PI3K-delta, the IC50 was 1.6 nM.
With `CCC(=O)N1CC[C@H](Nc2ncnc3c2nc(-c2cnc4[nH]ccc4c2)n3C)C1` [Compound 3-2, (S)-1-(3-((9-methyl-8-(1H-pyrrolo[2,3-b]pyridin-5-yl)-9H-purin-6-yl)amino)pyrrolidin-1-yl)propan-1-one], the “Selectivity versus PI3Kalpha” value at PI3K-alpha is reported as greater than 10. Further, the IC50 at PI3K-delta was less than 1 nM.
Regarding `CCn1c(-c2cnc(C)nc2)nc2c(N[C@H]3CCN(C(=O)C4CCC4)C3)ncnc21` [Compound 2-22, (S)-cyclobutyl(3-((9-ethyl-8-(2-methylpyrimidin-5-yl)-9H-purin-6-yl)amino)pyrrolidin-1-yl)methanone], the “Selectivity versus PI3Kalpha” value on PI3K-alpha is reported as greater than 10. Moreover, on PI3K-delta, the IC50 was found to be 1.7 nM.
On the same counts, the results for `CCn1c(-c2cnc(C)nc2)nc2c(N[C@H]3C[C@@H](C(=O)OC)N(C(=O)OC(C)(C)C)C3)ncnc21` [Compound 1-19, 1-tert-butyl 2-methyl (2S,4S)-4-{[9-ethyl-8-(2-methylpyrimidin-5-yl)-9H-purin-6-yl]amino}pyrrolidine-1,2-dicarboxylate] are greater than 10 and 69 nM.
The like results for `Cc1ncc(-c2nc3c(N[C@H]4CCN(C(=O)C5CC5)C4)ncnc3n2C)cn1` [Compound 3-23, N-[(3S)-1-(cyclopropylcarbonyl)pyrrolidin-3-yl]-9-methyl-8-(2-methylpyrimidin-5-yl)-9H-purin-6-amine] were, in that order, greater than 10 and 5.4 nM.
`CCn1c(-c2cnc(C)nc2)nc2c(NC3CCN(C(=O)c4cnco4)C3)ncnc21` (stereo in doubt) [Compound 2-76, (R)-(3-((9-ethyl-8-(2-methylpyrimidin-5-yl)-9H-purin-6-yl)amino)pyrrolidin-1-yl)(oxazol-5-yl)methanone]: the “Selectivity versus PI3Kalpha” value at PI3K-alpha is on record as greater than 10. Moreover, on PI3K-delta, the IC50 was found to be 3.1 nM.
Regarding `CCn1c(-c2cnc(C)nc2)nc2c(N[C@H]3C[C@@H](C(=O)NC)N(C(=O)C4CC4)C3)ncnc21` [Compound 15-9, (4S)-1-(cyclopropylcarbonyl)-4-{[9-ethyl-8-(2-methylpyrimidin-5-yl)-9H-purin-6-yl]amino}-N-methyl-L-prolinamide], the “Selectivity versus PI3Kalpha” value at PI3K-alpha is reported as greater than 10. The IC50 at PI3K-delta was determined as 46 nM.
On the same counts, the results for `CCn1c(-c2cnc(C)nc2)nc2c(NC3CN(C(=O)OC(C)(C)C)CC3O)ncnc21` (racemic) [Compound 1-15, ((3R,4R) and (3S,4S))-tert-butyl 3-{[9-ethyl-8-(2-methylpyrimidin-5-yl)-9H-purin-6-yl]amino}-4-hydroxypyrrolidine-1-carboxylate] are greater than 10 and 10 nM.
For the molecule `CCn1c(-c2cnc(C)nc2)nc2c(N[C@H]3CC[C@@H](C(=O)N(C)C4CC4)C3)ncnc21` [Compound 5-5, (1R,3S)-N-cyclopropyl-3-{[9-ethyl-8-(2-methylpyrimidin-5-yl)-9H-purin-6-yl]amino}-N-methylcyclopentanecarboxamide], the “Selectivity versus PI3Kalpha” value on PI3K-alpha is greater than 10. Moreover, the IC50 on PI3K-delta turned out to be 3.7 nM.
The like results for `CCn1c(-c2cnc(OC)c(F)c2)nc2c(N[C@H]3CCN(C(=O)C4CC(F)(F)C4)C3)ncnc21` [Compound 3A-7, N-{(3S)-1-[(3,3-difluorocyclobutyl)carbonyl]pyrrolidin-3-yl}-9-ethyl-8-(5-fluoro-6-methoxypyridin-3-yl)-9H-purin-6-amine] were, in that order, greater than 10 and less than 1 nM.
